From US5939405A, “Phosphate derivatives of diaryl 1,3,4-oxadiazolone” (priority 1999, dated 1999)

What was measured:
[1] = rapid screen of prodrug hydrolysis and drug release in plasma; format: in vitro ADME; conditions: 10 ug/mL in fresh rat plasma at 37° C.; stock 1 mg/mL in PEG-400; analysis 5 minutes after incubation; HPLC
Procedure: A rapid screen to determine the ability of prodrugs to hydrolyze and release the drug (compound of Example 1) is conducted as follows. A 1 mg/mL stock solution of the prodrug is prepared in distilled water or acetonitrile or PEG-400. Plasma from freshly collected rat or human blood is used in this assay. To 1 mL of plasma at 37° C. was added 10 μL of stock solution of prodrug and mixed gently. Immediately after the mixing, 100 μL of plasma was removed and quenched with 300 μL of acetontrile (Zero time sample). Samples were also obtained at 30 minutes and quenched immediately. The quenched samples were centrifuged to obtain a clear supernatant for analysis. The stock solution, T=0 and T=30 samples were analyzed by a HPLC assay that separates the drug from the prodrug. Based on the relative peak areas of prodrug and drug in these samples, different prodrugs are characterized as fast, moderate and slow release agents. For example, in this model, the compound of Example 6 was dissolved in PEG-400 at a concentration of 1 mg/mL and incubated at 10 ug/mL in fresh rat plasma at 37° C.

[2] = test system: cloned mammalian (mSlo or hSlo) BK channels; assay: BK-mediated outward current in Xenopus oocytes, two-electrode voltage clamp; format: cell-based; conditions: 1 μM; at least 5 oocytes; mSlo or hSlo expressed in Xenopus oocytes
Procedure: (§1) The ability of the compound of Example 1 to open BK channels and increase whole-cell outward (K^+) BK-mediated currents was assessed under voltage-clamp conditions by determining their ability to increase cloned mammalian (mSlo or hSlo) BK-mediated outward current heterologously expressed in Xenopus oocytes [Butler, A., et al., Science, 261, pp. 221-224 (1993); and Dworetzky, S. I., et al., Mol. Brain Res., 27, pp.189-193 (1994)]. The two BK constructs employed represent nearly structurally identical homologous proteins, and have proven to be pharmacologically identical in our tests. To isolate BK current from native (background, non-BK) current, the specific and potent BK channel-blocking toxin iberiotoxin (IBTX) [Galvez, A., et al., J. Biol. Chem,265, pp. 11083-11090 (1990)] was employed at a supramaximal concentration (50 nM). The relative contribution of BK channels current to total outward current was determined by subtraction of the current remaining in the presence of IBTX (non-BK current) from the current profiles obtained in all other experimental conditions (control, drug, and wash). […]

[3] = test system: non-BK native currents in the oocytes; assay: non-BK (IBTX-insensitive) native current in oocytes, voltage clamp; format: cell-based, Xenopus; conditions: at the tested concentration; current remaining in presence of 50 nM IBTX
Procedure: as §1

cortical infarct volume = assay: focal stroke model, permanent MCA and CCA occlusion; format: in vivo; conditions: 10 μg/kg intravenously, single bolus two hours after MCAO; Wistar rat; infarct measured 24 hours after MCAO; vs vehicle-treated (water) control
Procedure: To determine the ability of the compounds of the present invention to reduce cell loss resulting from neuronal ischemia, a standard focal cerebral ischemia is induced by permanent occlusion of the left middle cerebral artery (MCA) and common carotid artery (CCA) with one hour occlusion of the right CCA in the Wistar rat. The surgeries are performed using the sub-temporal approach of A. Tamura, et al., J. Cereb. Blood Flow Metab., 1, pp. 53-60, (1981) and its modifications [K. Osborne, et al., J. Neurol Neurosurg. Psychiatry, 50, pp. 402-410 (1987) and S. Menzies, et al., Neurosurgery, 31, pp. 100-107, (1992).]
The compound of Example 1 was evaluated in the focal stroke model involving permanent occlusion of the left MCA (MCAO) and CCA (CCAO) and temporary occlusion of the right CCA in the Wistar rat. This procedure results in a reliably large neocortical infarct volume that is measured by means of vital dye exclusion in serial slices through the brain 24 hours after MCAO. In the present test, compounds were administered using an i.v. or i.p. route of administration two hours after occlusion.

| SMILES | conversion of prodrug to the drug (compound of Example 1) [1] | BK current, % of control of IBTX-sensitive current [2] | effect on non-BK native currents in the oocytes [3] | reduction of cortical infarct volume (cortical infarct volume) |
| --- | --- | --- | --- | --- |
| O=C(COP(=O)(O)O)Oc1ccc(Cl)cc1Cn1nc(-c2ccc(C(F)(F)F)cc2)oc1=O [Example 6, 3-[[5-Chloro-2-[[[(phosphonooxy)methyl]carbonyl]oxy]phenyl]methyl]-5-[4-(trifluoromethyl)phenyl]-1,3,4-oxadiazol-2(3H)-one] | conversion of the compound of Example 6 to the compound of Example 1 |  |  |  |
| O=c1oc(-c2ccc(C(F)(F)F)cc2)nn1Cc1cc(Cl)ccc1O [Example 1, 3-[(5-Chloro-2-hydroxyphenyl)methyl]-5-[4-(trifluoromethyl)phenyl]-1,3,4-oxadiazol-2(3H)-one] |  | 126 % of control | did not effect non-BK native currents | about 18% |
